# Assay results published in US20080274061A1, “Method for Treating a Restless Limb Disorder” (priority 2007, published 2008).
# Where a name gives a salt, the structure may show the parent alone. Read-outs that look alike come from different tables or passages of the source.
# How the values were obtained:
# [1] = test system: subjects with idiopathic RLS; assay: Clinical trial: subject-rated severity of RLS sensory symptoms during Suggested Immobilization Tests; type: in vivo, human; conditions: for onset of action after administration: doses of 124 μg and 247 μg, intranasal; for maximum mean reduction from baseline in severity scores: single delivery, 0-10 scale
# Procedure: This example relates to a randomized, double-blind, placebo-controlled parallel-group proof-of-concept trial which assessed the efficacy, safety and tolerability of ascending doses of rotigotine nasal spray for the treatment of acute symptoms of RLS in subjects with idiopathic RLS. This was evaluated by subject rating of severity of symptoms (sensory symptoms) on a numeric symptoms severity scale and by the Periodic Limb Movement (PLM) index (motor symptoms) as measured by actigraphy following triggering of symptoms by immobilization. […] Subjects randomized to the “placebo group” received a single delivery of matching placebo nasal spray on each treatment day. […] It has been shown that immobilization results in worsening of both motor and sensory components of RLS symptoms. […] On each treatment day, the trial medication was administered 30 minutes after the start of the pre-dose SIT-0 or as soon as the subject's severity score reaches 5 on the numeric symptom severity scale, whichever is sooner. The last scoring prior to dosing is defined as the baseline value for each individual subject. • 1. […] PLM during Wakefulness Index (PLMWI) for each SIT and for specified time sections of each SIT (PLM during awake epochs/h, motor symptoms) was evaluated based on PLM measurements by means of actigraphy, recorded over the entire duration of the SIT period (pre dose and post dose SIT-0 to SIT-6, approximately 4.5 hours). Severity of symptoms in the legs was assessed by subject ratings using a numeric symptoms severity scale at the start of each pre-dose and post-dose SIT-0 to SIT-6 and every 5 minutes during each SIT. Scores on the scale range from 0 (‘no symptoms’) to 10 (‘very severe’).
# [2] = Comparative storage test of aqueous rotigotine HCl solution with/without α-cyclodextrin; type: physicochemical; conditions: storage at 60° C. for 8 weeks, solution of 1.6 mg/ml with α-cyclodextrin
# [3] = Maximum solubility in aqueous cyclodextrin solution at room temperature, isocratic HPLC; type: physicochemical; conditions: aqueous solution and aqueous solutions containing α- or β-cyclodextrin
# Procedure: The concentration was determined by isocratic HPLC analysis. HPLC column LiChroCART 75×4 mm, Superspher 60 RP-select B 5 μm (Merck), column temperature: 30° C., mobile phase:water/acetonitrile/methanesulfonic acid (65/35/0.05 v/v/v), flow rate: 2 ml/min, injection volume: 50 μl, detection at 220 nm, retention time approx. 1.5 min. The concentration was determined by use of an external reference solution having known concentration.
# [4] = orally (perorally) administered, first-pass metabolism in the liver; cited from earlier work
# [5] = effect of glycerol, in vitro permeation assays; cited from earlier work
# [6] = test system: subjects with idiopathic RLS; assay: Clinical trial: PLM during Wakefulness Index (PLMWI) by actigraphy during SITs; type: in vivo, human; conditions: highest dose (247 μg) nasal spray
# Procedure: This example relates to a randomized, double-blind, placebo-controlled parallel-group proof-of-concept trial which assessed the efficacy, safety and tolerability of ascending doses of rotigotine nasal spray for the treatment of acute symptoms of RLS in subjects with idiopathic RLS. This was evaluated by subject rating of severity of symptoms (sensory symptoms) on a numeric symptoms severity scale and by the Periodic Limb Movement (PLM) index (motor symptoms) as measured by actigraphy following triggering of symptoms by immobilization. […] Subjects randomized to the “placebo group” received a single delivery of matching placebo nasal spray on each treatment day. • 1. […] PLM during Wakefulness Index (PLMWI) for each SIT and for specified time sections of each SIT (PLM during awake epochs/h, motor symptoms) was evaluated based on PLM measurements by means of actigraphy, recorded over the entire duration of the SIT period (pre dose and post dose SIT-0 to SIT-6, approximately 4.5 hours). RLS is usually associated with involuntary PLM occurring in wakefulness (PMLW) and sleep (PMLS) in 80-85% of RLS patients. […] A central reader was used to standardize PLM evaluation of the actigraphy measurements performed during the SIT period. […]
# [7] = buccal, nasal or rectal administration to rats as HCl salt, compared with oral dosing; cited from earlier work
decrease in the rotigotine concentration [2] [mg/mL],solubility (in words) [3],Compound,onset of action after administration [1] [min],bioavailability (in words) [4],absorption through bovine nasal mucosa (in words) [5],maximum mean reduction from baseline in severity scores ([1]; 62 μg nasal spray) [points],maximum mean reduction from baseline in severity scores ([1]; 124 μg nasal spray) [points],maximum mean reduction from baseline in severity scores ([1]; 247 μg nasal spray) [points],"decrease in the mean severity scores ([1]; doses of 124 μg and 247 μg nasal spray, SIT-1 through SIT-6, 0-10 scale)",decrease from baseline in the PLMWI [6],bioavailability (in words) [7]
-0.07,–,CCCN(CCc1cccs1)[C@H]1CCc2c(O)cccc2C1 [Rotigotine HCl],10,–,–,–,–,–,–,–,–
–,practically insoluble,CCCN(CCc1cccs1)[C@H]1CCc2c(O)cccc2C1 [Rotigotine base],–,–,–,–,–,–,–,–,–
–,–,"CCCN(CCc1cccs1)[C@H]1CCc2c(O)cccc2C1 [rotigotine, (−)-5,6,7,8-tetrahydro-6-[propyl[2-(2-thienyl)ethyl]amino]-1-naphthol]",10,close to zero,enhance absorption,−0.8,−2.0,−2.3,approximately 2 points,approximately 10 points,improved bioavailability
